Laboratory results from PubChem BioAssay AID248 (DTP/NCI, 2004).
Inconclusive results and toxic doses are left out. Rule as the data show it: active = T/C of 150% or more; inactive = T/C below 125%.

Tested on: L1210 leukemia ip in BDF1 mice, survival T/C
Experiment: NCI In Vivo Anticancer Drug Screen. Data for tumor model L1210 Leukemia (intraperitoneal) in B6D2F1 (BDF1) mice
Details: endpoint: mean survival time, higher = longer survival
Procedure, shortened: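 Transplantable tumor model; survival measured in treated vs vehicle control mice. Value = treated/control.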

[1] = dose: 100.0 mg/kg/injection, schedule: Q01DX001 (ip), vehicle: saline
[2] = dose: 100.0 mg/kg/injection, schedule: Q04DX003 (ip), vehicle: Klucel (hydroxypropylcellulose) (HPC)
[3] = dose: 200.0 mg/kg/injection, schedule: Q01DX001 (ip), vehicle: saline
[4] = dose: 200.0 mg/kg/injection, schedule: Q04DX003 (ip), vehicle: Klucel (hydroxypropylcellulose) (HPC)
[5] = dose: 400.0 mg/kg/injection, schedule: Q01DX001 (ip), vehicle: saline
[6] = dose: 400.0 mg/kg/injection, schedule: Q04DX003 (ip), vehicle: Klucel (hydroxypropylcellulose) (HPC)
[7] = dose: 100.0 mg/kg/injection, schedule: Q01DX001 (ip), vehicle: carboxymethylcellulose (CMC)
[8] = dose: 200.0 mg/kg/injection, schedule: Q01DX001 (ip), vehicle: carboxymethylcellulose (CMC)
[9] = dose: 400.0 mg/kg/injection, schedule: Q01DX001 (ip), vehicle: carboxymethylcellulose (CMC)
[10] = dose: 100.0 mg/kg/injection, schedule: Q04DX003 (ip), vehicle: saline with Tween-80
[11] = dose: 200.0 mg/kg/injection, schedule: Q04DX003 (ip), vehicle: saline with Tween-80
[12] = dose: 400.0 mg/kg/injection, schedule: Q04DX003 (ip), vehicle: saline with Tween-80

Measured: T/C

c1ccc(C23c4ccccc4C(=NC4CCCCC4)C2N3C2CCCCC2)cc1 (configuration not stated)
inactive: [1] 94 % of control | dose: 100.0 mg/kg/injection, schedule: Q01DX009 (ip), vehicle: Klucel (hydroxypropylcellulose) (HPC) 97 % of control | [2] 93 % of control | [3] 104 % of control | dose: 200.0 mg/kg/injection, schedule: Q01DX009 (ip), vehicle: Klucel (hydroxypropylcellulose) (HPC) 92 % of control | [4] 94 % of control | [5] 110 % of control | dose: 400.0 mg/kg/injection, schedule: Q01DX009 (ip), vehicle: Klucel (hydroxypropylcellulose) (HPC) 91 % of control | [6] 98 % of control

CC1C(c2ccccc2)CC(c2ccccc2)OS1(=O)=O (configuration not stated)
inactive: dose: 100.0 mg/kg/injection, schedule: Q01DX001 (ip), vehicle: Klucel (hydroxypropylcellulose) (HPC) 95 % of control | [2] 103 % of control | dose: 200.0 mg/kg/injection, schedule: Q01DX001 (ip), vehicle: Klucel (hydroxypropylcellulose) (HPC) 97 % of control | [4] 94 % of control | dose: 400.0 mg/kg/injection, schedule: Q01DX001 (ip), vehicle: Klucel (hydroxypropylcellulose) (HPC) 93 % of control | [6] 97 % of control

CCC1(CC)OC2=C(CC(C#N)(C#N)C(C#N)(C#N)C2)O1
inactive: dose: 5.0 mg/kg/injection, schedule: Q01DX009 (ip), vehicle: Klucel (hydroxypropylcellulose) (HPC) 104 % of control | dose: 10.0 mg/kg/injection, schedule: Q01DX001 (ip), vehicle: saline 102 % of control | dose: 10.0 mg/kg/injection, schedule: Q01DX009 (ip), vehicle: Klucel (hydroxypropylcellulose) (HPC) 105 % of control | dose: 20.0 mg/kg/injection, schedule: Q01DX001 (ip), vehicle: saline 89 % of control | dose: 20.0 mg/kg/injection, schedule: Q01DX009 (ip), vehicle: Klucel (hydroxypropylcellulose) (HPC) 102 % of control

CCOC(=O)N1C(=O)NC(=O)C1c1ccccc1 (configuration not stated)
inactive: dose: 50.0 mg/kg/injection, schedule: Q01DX001 (ip), vehicle: saline 97 % of control | [1] 115 % of control | [3] 97 % of control

Cc1csc[n+]1C1CCCCC1
inactive: dose: 75.0 mg/kg/injection, schedule: Q01DX001 (ip), vehicle: saline 100 % of control

CN(C)C=Nc1ccc(C#N)cc1
inactive: dose: 100.0 mg/kg/injection, schedule: Q04DX002 (ip), vehicle: saline 98 % of control | dose: 200.0 mg/kg/injection, schedule: Q04DX002 (ip), vehicle: saline 91 % of control | dose: 400.0 mg/kg/injection, schedule: Q04DX002 (ip), vehicle: saline 91 % of control

O=C(C[N+]12CN3CN(CN(C3)C1)C2)c1ccc(Cl)cc1
inactive: dose: 40.0 mg/kg/injection, schedule: Q01DX Z (ip), vehicle: saline 98 % of control | dose: 44.0 mg/kg/injection, schedule: Q01DX Z (ip), vehicle: carboxymethylcellulose (CMC) 109 % of control | dose: 50.0 mg/kg/injection, schedule: Q01DX001 (ip), vehicle: carboxymethylcellulose (CMC) 107 % of control | dose: 60.0 mg/kg/injection, schedule: Q01DX Z (ip), vehicle: saline 107 % of control | dose: 73.0 mg/kg/injection, schedule: Q01DX Z (ip), vehicle: carboxymethylcellulose (CMC) 110 % of control | dose: 90.0 mg/kg/injection, schedule: Q01DX Z (ip), vehicle: saline 109 % of control | [7] 102 % of control | dose: 110.0 mg/kg/injection, schedule: Q01DX Z (ip), vehicle: carboxymethylcellulose (CMC) 113 % of control | dose: 135.0 mg/kg/injection, schedule: Q01DX Z (ip), vehicle: saline 109 % of control | dose: 165.0 mg/kg/injection, schedule: Q01DX Z (ip), vehicle: carboxymethylcellulose (CMC) 115 % of control | [8] 100 % of control | dose: 202.5 mg/kg/injection, schedule: Q01DX Z (ip), vehicle: saline 112 % of control | dose: 303.7 mg/kg/injection, schedule: Q01DX Z (ip), vehicle: saline 113 % of control | [9] 107 % of control

O=C1C(=C(c2ccccc2)N2CCCCC2)C(=O)c2ccccc21
inactive: [1] 104 % of control | [3] 109 % of control | [5] 106 % of control

CCOC(=O)C(O)(O)C(C)C
inactive: [1] 113 % of control | [5] 113 % of control

C/C(=C/C(=O)O)c1ccc([N+](=O)[O-])cc1
inactive: [10] 100 % of control | [11] 96 % of control | [12] 100 % of control

[CH3][Sb]([CH3])[S]C1OC(CO)C(O)C(O)C1O (configuration not stated)
inactive: dose: 12.5 mg/kg/injection, schedule: Q04DX003 (ip), vehicle: Klucel (hydroxypropylcellulose) (HPC) 99 % of control | dose: 25.0 mg/kg/injection, schedule: Q04DX003 (ip), vehicle: Klucel (hydroxypropylcellulose) (HPC) 89 % of control | dose: 50.0 mg/kg/injection, schedule: Q04DX003 (ip), vehicle: Klucel (hydroxypropylcellulose) (HPC) 95 % of control

CC(=O)OC1CCC2(C)C(CCC3C4CCC(=O)OC4(C)CC(=O)C32)C1 (configuration not stated)
inactive: dose: 100.0 mg/kg/injection, schedule: Q04DX003 (sc), vehicle: steriod suspending solution 104 % of control | dose: 200.0 mg/kg/injection, schedule: Q04DX003 (sc), vehicle: steriod suspending solution 100 % of control | dose: 400.0 mg/kg/injection, schedule: Q04DX003 (sc), vehicle: steriod suspending solution 97 % of control

O=C(O)/C=C/c1ccc(/C=C/C(=O)O)cc1
inactive: dose: 100.0 mg/kg/injection, schedule: Q01DX009 (ip), vehicle: saline with Tween-80 95 % of control | [10] 98 % of control | dose: 200.0 mg/kg/injection, schedule: Q01DX009 (ip), vehicle: saline with Tween-80 88 % of control | [11] 96 % of control | dose: 400.0 mg/kg/injection, schedule: Q01DX009 (ip), vehicle: saline with Tween-80 103 % of control | [12] 95 % of control

CCN(CC)CCC(O)c1cc(-c2ccc(Cl)cc2)nc2ccc(OC)cc12 (configuration not stated)
inactive: [7] 94 % of control | dose: 100.0 mg/kg/injection, schedule: Q04DX003 (ip), vehicle: carboxymethylcellulose (CMC) 104 % of control | [8] 92 % of control | dose: 200.0 mg/kg/injection, schedule: Q04DX003 (ip), vehicle: carboxymethylcellulose (CMC) 114 % of control | [9] 94 % of control | dose: 400.0 mg/kg/injection, schedule: Q04DX003 (ip), vehicle: carboxymethylcellulose (CMC) 110 % of control

Cc1n[nH]c(=S)n1NC=O
inactive: [1] 94 % of control | [3] 94 % of control | [5] 90 % of control

CC(=O)OC1CCC2(C)C(=CCC3C4C/C(=C\N5CCCC5)C(=O)C4(C)CCC32)C1 (configuration not stated)
inactive: dose: 100.0 mg/kg/injection, schedule: Q01DX001 (ip), vehicle: saline with Tween-80 93 % of control | dose: 200.0 mg/kg/injection, schedule: Q01DX001 (ip), vehicle: saline with Tween-80 90 % of control | dose: 400.0 mg/kg/injection, schedule: Q01DX001 (ip), vehicle: saline with Tween-80 90 % of control

CC(O)C[N+](=O)[O-] (configuration not stated)
inactive: dose: 50.0 mg/kg/injection, schedule: Q01DX009 (ip), vehicle: saline 103 % of control | dose: 100.0 mg/kg/injection, schedule: Q01DX009 (ip), vehicle: saline 98 % of control | dose: 200.0 mg/kg/injection, schedule: Q01DX009 (ip), vehicle: saline 106 % of control

O=c1cc(COc2ccccc2Cl)[nH]c(=O)[nH]1
inactive: [10] 95 % of control | [11] 95 % of control | [12] 95 % of control

COC(=O)c1ccccc1N=NNc1ccccc1C(=O)OC
inactive: dose: 100.0 mg/kg/injection, schedule: Q04DX002 (ip), vehicle: saline with Tween-80 92 % of control | [2] 107 % of control | dose: 200.0 mg/kg/injection, schedule: Q04DX002 (ip), vehicle: saline with Tween-80 89 % of control | [4] 111 % of control | [6] 98 % of control

O=C(N/N=C\c1cccc2ccccc12)C(=O)N/N=C/c1cccc2ccccc12
inactive: [10] 88 % of control | [11] 88 % of control | [12] 91 % of control
